# In patent US20240368159A1, “HPK1 DEGRADERS, COMPOSITIONS COMPRISING THE HPK1 DEGRADER, AND METHODS OF USING THE SAME” (BIOFRONT LTD, priority 2021, published 2024):
# Target: T1, HPK1 protein (Homo sapiens, UniProt Q92918)
# T1 construct: purchased Signal Chem M23-11G-10
# T1 sequence (Q92918 1-346 limits assumed): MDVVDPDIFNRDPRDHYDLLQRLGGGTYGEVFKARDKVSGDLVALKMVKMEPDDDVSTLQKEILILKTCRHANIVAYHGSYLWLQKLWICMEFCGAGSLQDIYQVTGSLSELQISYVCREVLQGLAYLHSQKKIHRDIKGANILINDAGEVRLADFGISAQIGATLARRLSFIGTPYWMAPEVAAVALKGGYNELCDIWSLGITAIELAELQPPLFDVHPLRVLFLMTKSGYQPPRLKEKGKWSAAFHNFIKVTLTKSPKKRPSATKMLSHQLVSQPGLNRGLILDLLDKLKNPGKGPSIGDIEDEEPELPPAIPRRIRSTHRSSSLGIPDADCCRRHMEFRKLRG
# Assay: HPK1 enzyme inhibition assay (ADP-Glo)
# Assay type: biochemical
# Details: MBP substrate, ATP, ADP-Glo readout
# Method: The compound was dissolved in 100% DMSO at the concentration of 10 mM. The HPK1 protein was purchased from Signal Chem (M23-11G-10). 2.5 μL per well of 2×HPK1 protein was added to assay plate containing the test compound, centrifuged at 1500 rpm for 1 minute, and then incubated at 25° C. for 60 minutes. MBP protein was purchased from Signal Chem (M42-51N) and ATP was purchased from Promega (V9102). The two were added 2.5 μL per well mixture of 2×MBP (0.2 ug/ul) and ATP (20 μM), centrifuged at 1500 rpm for 1 minute, then incubated at 25° C. for 60 minutes. Then added 5 μL of ADP-Glo from Promega (V9102) to the assay plate and depleted the unconsumed ATP for 60 minutes. Then centrifuged at 1500 rpm for 1 minute and incubated at 25° C. for 60 minutes. Finally, 10 μL of the kinase assay reagent from Promega (V9102) was added to the assay plate to convert ADP to ATP, centrifuged at 1500 rpm for 1 minute, incubate at 25° C. for 40 minutes. After 40 minutes incubation, the […] was determined. Based on the results, the IC50 value of the compound was calculated.
row,Compound,IC50 [nM]
1,"CCc1c[nH]c2ncc(-c3cccc(N4CCN(C(=O)CCCCCCCOc5cccc6c5CN(C5CCC(=O)N(C)C5=O)C6=O)CC4=O)c3)c(Cl)c12 (centres unmarked) [Example 2, 3-(4-((8-(4-(3-(4-chloro-3-ethyl-1H-pyrrolo[2,3-b]pyridin-5-yl)phenyl)-3-oxopiperazin-1-yl)-8-oxooctyl)oxy)-1-oxoisoindolin-2-yl)-1-methylpiperidine-2,6-dione]",100 to 1000
2,"CCc1c[nH]c2ncc(-c3cccc(N4CCN(C(=O)CCCOc5cccc6c5CN(C5CCC(=O)NC5=O)C6=O)CC4=O)c3)c(Cl)c12 (centres unmarked) [Example 4, 3-(4-(4-(4-(3-(4-chloro-3-ethyl-1H-pyrrolo[2,3-b]pyridin-5-yl)phenyl)-3-oxopiperazin-1-yl)-4-oxobutoxy)-1-oxoisoindolin-2-yl)piperidine-2,6-dione]",10 to 100
3,"CCc1c[nH]c2ncc(-c3cccc(N4CCN(C(=O)CCCCCCCCCOc5cccc6c5CN(C5CCC(=O)NC5=O)C6=O)CC4=O)c3)c(Cl)c12 (centres unmarked) [Example 7, 3-(4-((10-(4-(3-(4-chloro-3-ethyl-1H-pyrrolo[2,3-b]pyridin-5-yl)phenyl)-3-oxopiperazin-1-yl)-10-oxodecyl)oxy)-1-oxoisoindolin-2-yl)piperidine-2,6-dione]",100 to 1000
4,"CCc1c[nH]c2ncc(-c3cccc(N4CCN(C(=O)CCCCCCCNc5cccc6c5CN(C5CCC(=O)NC5=O)C6=O)CC4=O)c3)c(Cl)c12 (centres unmarked) [Example 10, 3-(4-((8-(4-(3-(4-chloro-3-ethyl-1H-pyrrolo[2,3-b]pyridin-5-yl)phenyl)-3-oxopiperazin-1-yl)-8-oxooctyl)amino)-1-oxoisoindolin-2-yl)piperidine-2,6-dione]",100 to 1000
5,"CCc1c[nH]c2ncc(-c3cccc(N4CCN(C(=O)CCCCCCCN(C)c5cccc6c5CN(C5CCC(=O)NC5=O)C6=O)CC4=O)c3)c(Cl)c12 (centres unmarked) [Example 11, 3-(4-((8-(4-(3-(4-chloro-3-ethyl-1H-pyrrolo[2,3-b]pyridin-5-yl)phenyl)-3-oxopiperazin-1-yl)-8-oxooctyl)(methyl)amino)-1-oxoisoindolin-2-yl)piperidine-2,6-dione]",100 to 1000
6,"CCc1c[nH]c2ncc(-c3cccc(N4CCN(C(=O)COC5CCN(c6cccc7c6C(=O)N(C6CCC(=O)NC6=O)C7=O)CC5)CC4=O)c3)c(Cl)c12 (centres unmarked) [Example 17, 4-(4-(2-(4-(3-(4-chloro-3-ethyl-1H-pyrrolo[2,3-b]pyridin-5-yl)phenyl)-3-oxopiperazin-1-yl)-2-oxoethoxy)piperidin-1-yl)-2-(2,6-dioxopiperidin-3-yl)isoindoline-1,3-dione]",100 to 1000
7,"CCc1c[nH]c2ncc(-c3cccc(N4CCN(CC(=O)N5CCN(c6ccc7c(c6)C(=O)N(C6CCC(=O)NC6=O)C7=O)CC5)CC4=O)c3)c(Cl)c12 (centres unmarked) [Example 34, 5-(4-(2-(4-(3-(4-chloro-3-ethyl-1H-pyrrolo[2,3-b]pyridin-5-yl)phenyl)-3-oxopiperazin-1-yl)acetyl)piperazin-1-yl)-2-(2,6-dioxopiperidin-3-yl)isoindoline-1,3-dione]",10 to 100
8,CCc1c[nH]c2ncc(-c3cccc(N4CCN(CCNC(=O)C5CCN(c6ccc7c(c6)C(=O)N(C6CCC(=O)NC6=O)C7=O)CC5)CC4=O)c3)c(Cl)c12 (centres unmarked) [Example 37],> 1000
9,"CCc1c[nH]c2ncc(-c3cccc(N4CCN(CCNc5ccc6c(c5)C(=O)N(C5CCC(=O)NC5=O)C6=O)CC4=O)c3)c(Cl)c12 (centres unmarked) [Example 60, 5-((2-(4-(3-(4-chloro-3-ethyl-1H-pyrrolo[2,3-b]pyridin-5-yl)phenyl)-3-oxopiperazin-1-yl)ethyl)amino)-2-(2,6-dioxopiperidin-3-yl)isoindoline-1,3-dione]",10 to 100
10,"CCc1c[nH]c2ncc(-c3cccc(N4CCN(C(=O)CCCCCCCOc5ccc6c(c5)C(=O)N(C5CCC(=O)NC5=O)C6)CC4=O)c3)c(Cl)c12 (centres unmarked) [Example 65, 3-(6-((8-(4-(3-(4-chloro-3-ethyl-1H-pyrrolo[2,3-b]pyridin-5-yl)phenyl)-3-oxopiperazin-1-yl)-8-oxooctyl)oxy)-1-oxoisoindolin-2-yl)piperidine-2,6-dione]",10 to 100
11,CCc1c[nH]c2ncc(-c3cccc(N4CCN(C(=O)CCCOc5ccc6c(c5)C(=O)N(C5CCC(=O)NC5=O)C6)CC4=O)c3)c(Cl)c12 (centres unmarked) [Example 67],10 to 100
12,"CCc1c[nH]c2ncc(-c3cccc(N4CCN(C(=O)CCCCCOc5ccc6c(c5)C(=O)N(C5CCC(=O)NC5=O)C6)CC4=O)c3)c(Cl)c12 (centres unmarked) [Example 68, 3-(6-((6-(4-(3-(4-chloro-3-ethyl-1H-pyrrolo[2,3-b]pyridin-5-yl)phenyl)-3-oxopiperazin-1-yl)-6-oxohexyl)oxy)-1-oxoisoindolin-2-yl)piperidine-2,6-dione]",10 to 100

# Continued, values first:
row,IC50 [nM],Compound
1,≤ 10,CCc1c[nH]c2ncc(-c3cccc(N4CCN(C(=O)COc5cccc6c5CN(C5CCC(=O)NC5=O)C6=O)CC4=O)c3)c(Cl)c12 (centres unmarked) [Example 3]
2,10 to 100,"CCc1c[nH]c2ncc(-c3cccc(N4CCN(C(=O)CCCCCOc5cccc6c5CN(C5CCC(=O)NC5=O)C6=O)CC4=O)c3)c(Cl)c12 (centres unmarked) [Example 5, 3-(4-((6-(4-(3-(4-chloro-3-ethyl-1H-pyrrolo[2,3-b]pyridin-5-yl)phenyl)-3-oxopiperazin-1-yl)-6-oxohexyl)oxy)-1-oxoisoindolin-2-yl)piperidine-2,6-dione]"
3,10 to 100,"CCc1c[nH]c2ncc(-c3cccc(N4CCN(C(=O)CCCCCCOc5cccc6c5CN(C5CCC(=O)NC5=O)C6=O)CC4=O)c3)c(Cl)c12 (centres unmarked) [Example 6, 3-(4-((7-(4-(3-(4-chloro-3-ethyl-1H-pyrrolo[2,3-b]pyridin-5-yl)phenyl)-3-oxopiperazin-1-yl)-7-oxoheptyl)oxy)-1-oxoisoindolin-2-yl)piperidine-2,6-dione]"
4,10 to 100,"CCc1c[nH]c2ncc(-c3cccc(N4CCN(C(=O)CCCCCCCOc5cccc6c5C(=O)N(C5CCC(=O)NC5=O)C6=O)CC4=O)c3)c(Cl)c12 (centres unmarked) [Example 9, 4-((8-(4-(3-(4-chloro-3-ethyl-1H-pyrrolo[2,3-b]pyridin-5-yl)phenyl)-3-oxopiperazin-1-yl)-8-oxooctyl)oxy)-2-(2,6-dioxopiperidin-3-yl)isoindoline-1,3-dione]"
5,10 to 100,"CCc1c[nH]c2ncc(-c3cccc(N4CCN(C(=O)CCOCCOCc5cn(-c6cccc7c6CN(C6CCC(=O)NC6=O)C7=O)nn5)CC4=O)c3)c(Cl)c12 (centres unmarked) [Example 13, 3-(4-(4-((2-(3-(4-(3-(4-chloro-3-ethyl-1H-pyrrolo[2,3-b]pyridin-5-yl)phenyl)-3-oxopiperazin-1-yl)-3-oxopropoxy)ethoxy)methyl)-1H-1,2,3-triazol-1-yl)-1-oxoisoindolin-2-yl)piperidine-2,6-dione]"
6,10 to 100,"CCc1c[nH]c2ncc(-c3cccc(N4CCN(C(=O)CCCCCN(C)c5cccc6c5CN(C5CCC(=O)NC5=O)C6=O)CC4=O)c3)c(Cl)c12 (centres unmarked) [Example 14, 3-(4-((6-(4-(3-(4-chloro-3-ethyl-1H-pyrrolo[2,3-b]pyridin-5-yl)phenyl)-3-oxopiperazin-1-yl)-6-oxohexyl)(methyl)amino)-1-oxoisoindolin-2-yl)piperidine-2,6-dione]"
7,10 to 100,"CCc1c[nH]c2ncc(-c3cccc(N4CCN(C(=O)CCCN(C)c5cccc6c5CN(C5CCC(=O)NC5=O)C6=O)CC4=O)c3)c(Cl)c12 (centres unmarked) [Example 15, 3-(4-((4-(4-(3-(4-chloro-3-ethyl-1H-pyrrolo[2,3-b]pyridin-5-yl)phenyl)-3-oxopiperazin-1-yl)-4-oxobutyl)(methyl)amino)-1-oxoisoindolin-2-yl)piperidine-2,6-dione]"
8,10 to 100,"CCc1c[nH]c2ncc(-c3cccc(N4CCN(C(=O)COC5CN(c6cccc7c6C(=O)N(C6CCC(=O)NC6=O)C7=O)C5)CC4=O)c3)c(Cl)c12 (centres unmarked) [Example 18, 4-(3-(2-(4-(3-(4-chloro-3-ethyl-1H-pyrrolo[2,3-b]pyridin-5-yl)phenyl)-3-oxopiperazin-1-yl)-2-oxoethoxy)azetidin-1-yl)-2-(2,6-dioxopiperidin-3-yl)isoindoline-1,3-dione]"
9,10 to 100,"CCc1c[nH]c2ncc(-c3cccc(N4CCN(C(=O)CCCCCNc5ccc6c(c5)C(=O)N(C5CCC(=O)NC5=O)C6=O)CC4=O)c3)c(Cl)c12 (centres unmarked) [Example 19, 5-((6-(4-(3-(4-chloro-3-ethyl-1H-pyrrolo[2,3-b]pyridin-5-yl)phenyl)-3-oxopiperazin-1-yl)-6-oxohexyl)amino)-2-(2,6-dioxopiperidin-3-yl)isoindoline-1,3-dione]"
10,10 to 100,"CCc1c[nH]c2ncc(-c3cccc(N4CCN(C(=O)CCN5CCN(c6cccc7c6C(=O)N(C6CCC(=O)NC6=O)C7=O)CC5)CC4=O)c3)c(Cl)c12 (centres unmarked) [Example 20, 4-(4-(3-(4-(3-(4-chloro-3-ethyl-1H-pyrrolo[2,3-b]pyridin-5-yl)phenyl)-3-oxopiperazin-1-yl)-3-oxopropyl)piperazin-1-yl)-2-(2,6-dioxopiperidin-3-yl)isoindoline-1,3-dione]"
11,≤ 10,CCc1c[nH]c2ncc(-c3cccc(N4CCN(C(=O)COc5ccc6c(c5)C(=O)N(C5CCC(=O)NC5=O)C6)CC4=O)c3)c(Cl)c12 (centres unmarked) [Example 66]
